Experimental findings from ChEMBL document CHEMBL2169877, “Antagonists of 5-HT₆ receptors. Substituted 3-(phenylsulfonyl)pyrazolo[1,5-a]pyrido[3,4-e]pyrimidines and 3-(phenylsulfonyl)pyrazolo[1,5-a]pyrido[4,3-d]pyrimidines-Synthesis and 'structure-activity' relationship” (Bioorg Med Chem Lett, 2012) are described below.

Assay [1] deals with T1, 5-hydroxytryptamine receptor 6 (Homo sapiens, UniProt P50406). Kind of assay: Displacement of [3H]lysergic acid diethylamide from human recombinant 5HT6 receptor expressed in HeLa cells after 120 mins. The assay is classed as cell-based. Background: Displacement assays read how much labelled ligand stays bound in the presence of the test substance.
T1 sequence (P50406 whole entry): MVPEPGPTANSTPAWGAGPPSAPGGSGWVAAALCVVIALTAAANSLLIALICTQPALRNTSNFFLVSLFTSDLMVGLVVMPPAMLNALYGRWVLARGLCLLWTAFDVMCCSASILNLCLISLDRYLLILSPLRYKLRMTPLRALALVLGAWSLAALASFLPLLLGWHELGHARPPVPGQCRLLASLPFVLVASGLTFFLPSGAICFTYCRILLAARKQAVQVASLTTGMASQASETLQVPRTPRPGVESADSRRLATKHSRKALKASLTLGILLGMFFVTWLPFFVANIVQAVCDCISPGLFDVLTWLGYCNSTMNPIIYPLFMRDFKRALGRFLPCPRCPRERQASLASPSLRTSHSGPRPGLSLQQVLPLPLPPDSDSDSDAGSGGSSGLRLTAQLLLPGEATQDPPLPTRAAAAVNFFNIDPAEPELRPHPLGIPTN
In assay [2] the target is T1, 5-hydroxytryptamine receptor 6. Put plainly: Antagonist activity at human recombinant 5HT6 receptor expressed in […] cells assessed as inhibition of serotonin-induced cAMP accumulation after 2 hrs. Type of assay: functional, cell-based, HEK293.
Assay [3] has as its target T2, 5-hydroxytryptamine receptor 2B (Homo sapiens, UniProt P41595). Put plainly: Antagonist activity at human recombinant 5HT2B receptor expressed in HEK293 cells assessed as inhibition of alphamethyl5HT-induced intracellular calcium mobilization by Fluo4-based staining method. Type of assay: functional, cell-based. Background: Calcium assays in cells follow changes in intracellular calcium, usually with a dye or a luminescent sensor.

Assay [4] has as its target Voltage-gated inwardly rectifying potassium channel KCNH2 (Homo sapiens, UniProt Q12809). Put plainly: Inhibition of human recombinant ERG channel expressed in […] cells after 3 to 8 mins by voltage clamp assay. Type of assay: cell-based.
The target of assay [5] is T2, 5-hydroxytryptamine receptor 2B. Put plainly: Agonist activity at human recombinant 5HT2B receptor expressed in HEK293 cells assessed as increase in intracellular calcium mobilization by Fluo4-based staining method. Type of assay: functional, cell-based.
The target is the same in assay [6]. Put plainly: Displacement of [3H]lysergic acid diethylamide from human recombinant 5HT2B receptor at 1 uM.

Structures are written as SMILES. Active and inactive are the calls of the source. The calls are words filed in the database; no cut-off is given here.

T2 sequence (P41595 whole entry): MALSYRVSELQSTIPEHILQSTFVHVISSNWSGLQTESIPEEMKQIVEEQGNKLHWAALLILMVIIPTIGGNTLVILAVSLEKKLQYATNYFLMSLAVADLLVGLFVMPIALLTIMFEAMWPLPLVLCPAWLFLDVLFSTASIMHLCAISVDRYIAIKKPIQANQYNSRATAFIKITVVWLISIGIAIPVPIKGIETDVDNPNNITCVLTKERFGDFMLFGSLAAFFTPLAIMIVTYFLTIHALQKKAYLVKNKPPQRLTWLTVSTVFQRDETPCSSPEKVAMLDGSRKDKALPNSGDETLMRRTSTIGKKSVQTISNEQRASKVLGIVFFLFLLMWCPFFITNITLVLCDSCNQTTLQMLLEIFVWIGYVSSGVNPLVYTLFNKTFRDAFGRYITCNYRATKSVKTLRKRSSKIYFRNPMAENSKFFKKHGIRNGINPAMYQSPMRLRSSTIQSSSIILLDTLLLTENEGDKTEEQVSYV
Voltage-gated inwardly rectifying potassium channel KCNH2, sequence (Q12809 whole entry): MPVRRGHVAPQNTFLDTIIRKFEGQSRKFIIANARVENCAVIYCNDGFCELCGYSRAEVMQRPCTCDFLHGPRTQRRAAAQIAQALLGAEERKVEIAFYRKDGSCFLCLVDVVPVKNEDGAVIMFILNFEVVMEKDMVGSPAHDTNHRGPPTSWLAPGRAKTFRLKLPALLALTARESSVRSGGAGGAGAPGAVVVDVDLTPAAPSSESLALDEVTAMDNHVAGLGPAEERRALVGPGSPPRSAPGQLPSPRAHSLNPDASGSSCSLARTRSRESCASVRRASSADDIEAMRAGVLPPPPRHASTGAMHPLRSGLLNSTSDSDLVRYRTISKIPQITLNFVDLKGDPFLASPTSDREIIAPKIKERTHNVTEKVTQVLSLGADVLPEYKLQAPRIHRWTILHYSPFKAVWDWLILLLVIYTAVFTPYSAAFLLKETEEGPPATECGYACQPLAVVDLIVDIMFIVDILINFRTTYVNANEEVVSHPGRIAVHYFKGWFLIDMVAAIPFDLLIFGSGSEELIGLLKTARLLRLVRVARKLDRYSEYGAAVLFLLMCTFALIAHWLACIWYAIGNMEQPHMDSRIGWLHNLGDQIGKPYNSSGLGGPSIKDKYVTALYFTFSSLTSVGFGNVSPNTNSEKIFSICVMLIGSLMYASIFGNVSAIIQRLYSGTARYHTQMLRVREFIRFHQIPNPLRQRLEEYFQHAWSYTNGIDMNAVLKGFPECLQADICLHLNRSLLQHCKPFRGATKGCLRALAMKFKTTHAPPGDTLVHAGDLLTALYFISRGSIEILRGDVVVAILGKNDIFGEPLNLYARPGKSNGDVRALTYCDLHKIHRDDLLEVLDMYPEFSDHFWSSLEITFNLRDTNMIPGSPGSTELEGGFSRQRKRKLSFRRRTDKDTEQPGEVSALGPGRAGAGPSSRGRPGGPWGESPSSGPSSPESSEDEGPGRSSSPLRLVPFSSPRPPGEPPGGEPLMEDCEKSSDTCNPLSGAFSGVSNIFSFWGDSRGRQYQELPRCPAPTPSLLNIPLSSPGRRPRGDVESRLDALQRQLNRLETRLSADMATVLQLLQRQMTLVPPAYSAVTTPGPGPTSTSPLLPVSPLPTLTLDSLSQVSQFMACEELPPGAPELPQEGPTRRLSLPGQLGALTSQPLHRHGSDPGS

The Ki is the dissociation constant of the complex between target and ligand, obtained from inhibition or displacement. For the molecule `Cc1nn2cc3c(nc2c1S(=O)(=O)c1ccccc1)CCN(C)C3`, the Ki in assay [1] was > 10 µM.

On to `Cc1nn2c3c(cnc2c1S(=O)(=O)c1ccccc1)CN(C)CC3`, for which, in assay [1], the Ki was 0.0604 µM.

With `CSc1nn2c3c(cnc2c1S(=O)(=O)c1ccc(F)cc1)CN(C)CC3`, the inhibition constant (Ki) in assay [1] was found to be 0.0357 µM.

Take `CSc1nn2cc3c(nc2c1S(=O)(=O)c1ccc(F)cc1)CCN(C)C3`: in assay [2], the Ki stood at 1.16 µM.

On to `CSc1nn2c3c(cnc2c1S(=O)(=O)c1ccccc1)CN(C)CC3`, for which the results for the Ki in assay [1] and in assay [2] were 0.0077 µM and 0.0148 µM, respectively.

As to `CSc1nn2cc3c(nc2c1S(=O)(=O)c1ccccc1)CCN(C)C3`, in assay [2], the Ki was 0.492 µM.

Take `CNc1nn2c3c(cnc2c1S(=O)(=O)c1ccccc1)CNCC3`: in assay [2], the Ki amounted to 0.0019 µM.

By IC50 is commonly meant the point on the concentration scale where inhibition reaches its midpoint. Regarding `CNc1nn2c3c(cnc2c1S(=O)(=O)c1ccccc1)CN(C)CC3`, the Ki in assay [1] is 0.00039 µM; in assay [2] it was 0.0018 µM. Also, in assay [3], the inhibition result was “Dose-dependent effect”. Also, the IC50 in assay [3] (read-out: IC50) came out at 6.16 µM; in assay [4] it was 54.2 µM. In assay [5], the result was inactive. In addition, the Activity in assay [6] was found to be 50%.

On to `CNc1nn2cc3c(nc2c1S(=O)(=O)c1ccccc1)CCNC3`, for which the Ki in assay [2] was determined as 0.0021 µM.
